According to patent publication US20100249205A1 (ARIZONA BOARD OF REGENTS, priority 2005, published 2010):
Read-outs that look alike come from different tables or passages of the source.

Experiments:
[1] = target: T1, recombinant human p110δ/p85α (Homo sapiens, UniProt O00329); assay: Recombinant PI-3 kinase inhibition, [32P]γ-ATP dependent phosphorylation of phosphatidylinositol; assay type: biochemical
T1 construct: purchased Upstate, Charlottesville, Va

[2] = target: T2, recombinant bovine p110α/p85α (Bos taurus, UniProt P32871); assay: as above; assay type: biochemical
T2 construct: purchased Jena Bioscience, Jena, Germany
T2 sequence (P32871 whole entry): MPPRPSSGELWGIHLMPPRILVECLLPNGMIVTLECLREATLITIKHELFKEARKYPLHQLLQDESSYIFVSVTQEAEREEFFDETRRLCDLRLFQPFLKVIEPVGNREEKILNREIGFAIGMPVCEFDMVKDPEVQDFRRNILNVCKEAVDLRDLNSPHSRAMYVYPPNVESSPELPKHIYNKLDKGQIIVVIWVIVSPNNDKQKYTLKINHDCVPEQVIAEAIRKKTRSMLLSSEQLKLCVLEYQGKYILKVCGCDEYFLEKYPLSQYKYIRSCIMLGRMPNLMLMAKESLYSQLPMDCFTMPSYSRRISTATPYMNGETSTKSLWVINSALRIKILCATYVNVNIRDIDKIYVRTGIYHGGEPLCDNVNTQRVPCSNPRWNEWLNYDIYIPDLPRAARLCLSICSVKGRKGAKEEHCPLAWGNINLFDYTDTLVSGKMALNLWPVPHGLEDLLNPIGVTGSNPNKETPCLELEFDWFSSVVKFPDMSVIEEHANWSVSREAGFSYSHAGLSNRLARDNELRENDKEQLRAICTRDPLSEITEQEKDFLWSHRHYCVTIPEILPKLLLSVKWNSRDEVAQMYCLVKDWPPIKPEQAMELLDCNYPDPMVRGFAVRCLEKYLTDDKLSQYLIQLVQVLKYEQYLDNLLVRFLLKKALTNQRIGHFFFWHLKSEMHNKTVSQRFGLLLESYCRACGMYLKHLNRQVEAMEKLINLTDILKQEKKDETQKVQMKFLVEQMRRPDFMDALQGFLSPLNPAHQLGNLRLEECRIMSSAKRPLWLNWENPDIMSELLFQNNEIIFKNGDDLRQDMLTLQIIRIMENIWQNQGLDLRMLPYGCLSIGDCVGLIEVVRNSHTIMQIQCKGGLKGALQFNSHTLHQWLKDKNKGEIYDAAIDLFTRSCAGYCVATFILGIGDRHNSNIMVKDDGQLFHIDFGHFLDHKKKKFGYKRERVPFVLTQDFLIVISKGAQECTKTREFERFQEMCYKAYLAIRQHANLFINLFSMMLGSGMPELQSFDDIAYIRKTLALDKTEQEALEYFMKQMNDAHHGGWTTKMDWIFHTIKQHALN
T2 sequence (P23727 whole entry partner): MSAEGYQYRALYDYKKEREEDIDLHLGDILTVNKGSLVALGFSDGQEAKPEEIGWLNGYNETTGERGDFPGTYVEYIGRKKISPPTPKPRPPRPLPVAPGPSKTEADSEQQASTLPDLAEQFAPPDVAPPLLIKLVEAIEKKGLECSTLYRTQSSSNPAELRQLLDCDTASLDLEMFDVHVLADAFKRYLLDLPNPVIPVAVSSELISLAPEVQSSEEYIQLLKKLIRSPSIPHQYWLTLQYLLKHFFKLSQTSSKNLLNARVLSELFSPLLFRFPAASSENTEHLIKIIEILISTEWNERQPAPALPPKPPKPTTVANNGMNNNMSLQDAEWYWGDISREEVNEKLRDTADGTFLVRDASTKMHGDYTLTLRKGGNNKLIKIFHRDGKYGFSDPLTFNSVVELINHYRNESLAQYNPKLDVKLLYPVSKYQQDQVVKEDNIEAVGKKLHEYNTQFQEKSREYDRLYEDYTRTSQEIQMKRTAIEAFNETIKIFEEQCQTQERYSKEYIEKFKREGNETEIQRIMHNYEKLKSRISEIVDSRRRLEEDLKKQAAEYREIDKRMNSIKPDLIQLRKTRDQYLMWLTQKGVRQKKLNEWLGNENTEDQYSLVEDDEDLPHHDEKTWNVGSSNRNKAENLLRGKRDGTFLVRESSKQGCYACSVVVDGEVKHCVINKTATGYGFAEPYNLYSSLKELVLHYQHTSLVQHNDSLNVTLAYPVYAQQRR

[3] = test system: phospho-Ser^473-Akt in HT-29 colon cancer cells; assay: Inhibition of EGF-dependent activation of Akt (phospho-Ser473-Akt western blot); assay type: cell-based, human; conditions: HT-29 cells, 4 hours exposure, EGF 50 ng/ml for 20 minutes
Protocol: The cells were then stimulated with epidermal growth factor (EGF) at 50 ng/ml for 20 minutes. Cells were lysed and the proteins were separated on an SDS-PAGE and transferred to nitrocellulose.

[4] = test system: HT-29 human colon cancer cells; assay: Cytotoxicity / cell growth inhibition in HT-29 cells, cell number by flow cytometry; assay type: cell-based; conditions: read-out: growth inhibitory concentration 50% (IC50)
Protocol: The compounds were added from a 10 mg/ml stock solution in ethanol. Cell number was determined after 3 days by flow cytometry using a Guava EasyCyte Plus flow cytometer (Guava Technologies). The results are expressed as cell number at the end of the assay as percent of the control value with no drug. Values are the mean of 3 determinations and bars are standard deviation.

[5] = from U.S. application Ser. No. 11/178,553; cited from earlier work
[6] = In vitro metabolism in murine S9 fractions; assay type: in vitro ADME; conditions: phase I, phase II and phase I/II reactions, 60 min
Protocol: Metabolites generated in these reactions were identified by HPLC runs, using a wavelength of 310 nm (see FIG. 6C). Peaks representing metabolites were identified by comparing the HPLC profiles (at 310 nm) in chromatograms from 0 min and 60 min reaction times. The corresponding mass spectral (MS) analysis of these peaks, using quadrupolar time-of-flight MS allowed the accurate mass of the metabolites to be determined (see FIG. 6D). Metabolynx software (Waters-MicroMass, Milford, Mass.) was used to interpret the spectra.
We identified the M#1 as a reduction product which is most probably a non-microsomal carbonyl reduction of a ketone to a secondary alcohol, as described in previous metabolism studies. In addition, M#2-3 were the same reduction products however, the alteration in retention time may indicate that the molecule undergoes reduction in sites other than that observed with M#1.

mTOR = mTOR (Homo sapiens, UniProt P42345); assay: mTOR inhibition (Table 1); assay type: biochemical
NCI cell panel = assay: Cytotoxicity, NCI cell panel (growth inhibition, MTT assay); conditions: Homo sapiens, read-out: Cytotoxicity: NCI cell panel IC50
Source text: The proliferation of cells may be dependent on the PI-3 kinase-Akt-mTOR signaling pathway. In addition, signaling through PI-3 kinase and Akt appears to inhibit apoptosis. […] The MTT assay is a standard colorimetric assay for measuring cellular proliferation (cell growth). It is universally used to determine cytotoxicity of potential medicinal agents and other toxic materials. Yellow MTT (3-(4,5-Dimethylthiazol-2-yl)-2,5-diphenyltetrazolium bromide) is reduced to purple formazan in the mitochondria of living cells. This reduction takes place only when mitochondrial reductase enzymes are active, and therefore conversion is directly related to the number of viable (living) cells. […] Toxicities are measured at the maximum tolerated dose or the highest dose tested. […] Alanine aminotranferease (ALT) and aspartate aminotransferase (AST) are enzymes located in liver cells that leak out into the general circulation when liver cells are injured. […] A low liver toxicity and a high lymphocyte toxicity as a surrogate for inhibition of tumor cell growth is the desirable feature.

[7] = Stability of PX-866 in buffer systems by HPLC; assay type: physicochemical; conditions: for % remaining / % degradation: 1 mg/mL; for % remaining: within 2 hours, 4° C.; for % degradation: after 2 hours of storage
Protocol: This solution was used as a stock to make the various test buffer solutions to be analyzed. The stock, in each case, was diluted 1:10 to a final storage concentration of 1 mg/mL with 5% dextrose for injection (D5W), sterile water for injection (SW), 0.9% sodium chloride for injection (NS), absolute ethanol (EtOH), and 20 mM sodium phosphate (NaH2PO4) buffer. Prior to analysis the test buffers were further diluted 1:100, to a final analytical concentration of 10 μg/mL, with 50:50 0.2% formic acid:methanol, v:v. 50 μL of each sample was then injected into the HPLC system (Alliance 2695 Separation Module, Waters, Milford, Mass.; see Table 2 for HPLC parameters) for analysis. The 2 hour and 24 hour test samples were stored, undiluted, at 4° C. prior to analysis while the 0 hour samples were immediately quantified following dilution.

PI-3 kinase = assay type: biochemical; conditions: read-out: PI-3 kinase inhibition IC50
[8] = HT-29 cells, 3 days, cell number as percent of control

T1 sequence (O00329 whole entry): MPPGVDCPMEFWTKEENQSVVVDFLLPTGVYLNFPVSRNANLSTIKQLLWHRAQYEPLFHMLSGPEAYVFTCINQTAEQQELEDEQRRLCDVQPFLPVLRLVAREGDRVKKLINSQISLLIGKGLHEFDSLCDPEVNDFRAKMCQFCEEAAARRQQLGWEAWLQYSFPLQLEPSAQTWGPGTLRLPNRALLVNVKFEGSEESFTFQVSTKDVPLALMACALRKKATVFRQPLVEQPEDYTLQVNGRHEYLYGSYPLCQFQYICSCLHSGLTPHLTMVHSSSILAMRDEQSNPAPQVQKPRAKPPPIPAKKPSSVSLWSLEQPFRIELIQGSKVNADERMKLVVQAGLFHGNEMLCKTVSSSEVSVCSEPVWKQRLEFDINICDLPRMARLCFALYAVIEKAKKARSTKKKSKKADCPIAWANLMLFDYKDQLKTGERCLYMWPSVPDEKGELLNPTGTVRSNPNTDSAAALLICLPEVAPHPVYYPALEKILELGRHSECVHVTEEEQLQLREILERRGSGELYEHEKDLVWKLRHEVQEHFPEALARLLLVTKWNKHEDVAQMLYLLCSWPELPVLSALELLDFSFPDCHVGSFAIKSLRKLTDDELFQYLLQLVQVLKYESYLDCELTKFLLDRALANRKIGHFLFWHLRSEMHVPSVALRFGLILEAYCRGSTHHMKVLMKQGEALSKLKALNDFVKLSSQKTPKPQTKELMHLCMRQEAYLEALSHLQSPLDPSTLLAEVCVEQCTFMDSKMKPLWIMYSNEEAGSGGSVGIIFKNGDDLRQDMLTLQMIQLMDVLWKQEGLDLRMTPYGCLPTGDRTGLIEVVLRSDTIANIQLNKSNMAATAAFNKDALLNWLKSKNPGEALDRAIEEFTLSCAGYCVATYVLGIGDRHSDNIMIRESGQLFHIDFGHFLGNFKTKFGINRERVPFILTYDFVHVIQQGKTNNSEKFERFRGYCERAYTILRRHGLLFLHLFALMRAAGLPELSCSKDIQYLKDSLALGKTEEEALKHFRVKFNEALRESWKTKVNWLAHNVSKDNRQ
T1 sequence (P27986 whole entry partner): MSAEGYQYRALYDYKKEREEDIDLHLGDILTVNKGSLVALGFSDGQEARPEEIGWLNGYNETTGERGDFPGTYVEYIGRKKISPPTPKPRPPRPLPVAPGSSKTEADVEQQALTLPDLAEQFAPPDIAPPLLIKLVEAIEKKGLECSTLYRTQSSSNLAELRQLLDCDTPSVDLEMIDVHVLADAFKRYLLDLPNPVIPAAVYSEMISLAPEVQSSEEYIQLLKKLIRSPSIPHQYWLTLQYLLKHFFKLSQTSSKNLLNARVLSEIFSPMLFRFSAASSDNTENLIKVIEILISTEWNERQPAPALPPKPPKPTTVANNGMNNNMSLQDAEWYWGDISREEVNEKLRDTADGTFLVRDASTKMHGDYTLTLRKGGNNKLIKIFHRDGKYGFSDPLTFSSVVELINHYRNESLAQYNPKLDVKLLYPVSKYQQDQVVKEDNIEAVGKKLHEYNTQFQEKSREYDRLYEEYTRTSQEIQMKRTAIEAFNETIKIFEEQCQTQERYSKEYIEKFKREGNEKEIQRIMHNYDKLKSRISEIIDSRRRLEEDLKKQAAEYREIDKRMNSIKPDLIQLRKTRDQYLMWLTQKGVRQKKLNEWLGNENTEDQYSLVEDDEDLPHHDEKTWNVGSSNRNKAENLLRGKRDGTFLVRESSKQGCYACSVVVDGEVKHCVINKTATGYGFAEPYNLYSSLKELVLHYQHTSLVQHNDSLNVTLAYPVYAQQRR

With “11-deacetylated,17-hydroxy PX-866 [PX-866-1]” the “inhibition of p110δ isoform of PI-3 kinase” value [1] was “considerably less active”, the “inhibition of p110α isoform of PI-3 kinase” value [2] was “considerably less active” and the “IC50 for inhibition of phospho-Ser473-Akt (ratio to total Akt)” value [3] was “greater than 70 nM”. For the same compound, the IC50 [4, 8] was 4500 nM.

For 17-hydroxy PX-866 [PX-866-2], the “inhibition of p110δ isoform of PI-3 kinase” value [1] was “as active as PX-866 or wortmannin”, the “inhibition of p110α isoform of PI-3 kinase” value [2] was “as active as PX-866 or wortmannin” and the “IC50 for inhibition of phospho-Ser473-Akt (ratio to total Akt)” value [3] was 40 nM. For the same compound, the IC50 [4, 8] was > 50000 nM.

In the case of `C=CCN(/C=C1/C(=O)O[C@H](COC)[C@@]2(C)C1=C(O)C(=O)C1=C2[C@H](OC(C)=O)C[C@]2(C)C(=O)CC[C@@H]12)CC=C` [PX-866, Acetic acid 4-diallylaminomethylene-6-hydroxy-1-α-methoxymethyl-10β,13β-dimethyl-3,7,17-trioxo-1,3,4,7,10,11β,12,13,14α,15,16,17-dodecahydro-2-oxa-cyclopenta[α]phenanthren-11-yl ester], the “blood levels following oral administration” value [5] is given as “low”, the “type of metabolites formed” value [6] is given as “only Phase I-type metabolites were formed” and the IC50 (mTOR; read-out: mTOR inhibition IC50) is given as > 3000 nM. The IC50 (NCI cell panel) was 2200 nM, the “% remaining” value ([7]; 20 mM sodium phosphate buffer) was > 60% and the “% remaining” value ([7]; D5W (5% dextrose for injection)) was > 80%. For the same compound, the “% degradation” value ([7]; EtOH (absolute ethanol)) was < 10%, the “% degradation” value ([7]; NS (0.9% sodium chloride for injection)) was < 10% and the “% degradation” value ([7]; SW (sterile water for injection)) was < 10%. For the same compound, the “stability from 2 to 24 hours” value ([7]; regardless of the buffer system employed) was “maintained relative stability”, the IC50 (PI-3 kinase) was 0.5 nM and the IC50 ([4]; Homo sapiens, HT-29, 72 h) was 4000 nM.

In the case of `COCC1OC(=O)C(=CN2CCCC2)C2=C(O)C(=O)C3=C(C(OC(C)=O)CC4(C)C(=O)CCC34)C21C` (stereo not drawn) [PX-867, Acetic acid 6-hydroxy-1α-methoxymethyl-10β,13β-dimethyl-3,7,17-trioxo-4-pyrrolidin-1-yl-methylene-1,3,4,7,10,11β,12,13,14α,15,16,17-dodecahydro-2-oxa-cyclopenta[α]phenanthren-11-yl], the IC50 (mTOR) is reported as > 3000 nM, the IC50 (NCI cell panel) is reported as 500 nM and the IC50 (PI-3 kinase) is reported as 1.1 nM.

`COC[C@H]1OC(=O)c2coc3c2[C@@]1(C)C1=C(C3=O)[C@@H]2CCC(=O)[C@@]2(C)C[C@H]1OC(C)=O` [Wortmannin, wortmannin, reference compound] gave an IC50 (NCI cell panel) of 8900 nM.
